How the values were obtained:
corneodesmosin = assay: Corneodesmosin signal after incubation of SC acetone powder with semi-purified AGA (immunoblot); format: biochemical; details: 8 hours, 37° C., pH 8
Method: An SC acetone powder obtained by the “varnish stripping” technique as described by Mehul B. et al. (2000, The Journal of Biological Chemistry, Vol. 275, No. 17, 12841-12847) is incubated with a semi-purified AGA extract in the presence or otherwise of 5 mM L-asparagine at the rate of 100 μl of incubation solution per mg of acetone powder. The incubations are carried out in 0.1 M Tris-HCl buffer, pH 8, at 37° C., for 8 hours, with stirring. A test t0 is made as well as a control: buffer alone.
The soluble proteins of each sample are then extracted under denaturing conditions (SDS, DTT and boiling). The total proteins are assayed according to the Bradford method and the concentrations are aligned at 0.6 mg/ml in Laemmli extraction buffer.
An SDS-PAGE separation is then carried out, followed by a transfer onto PVDF membrane marketed by Millipore. The corneodesmosin is immunodetected with the monoclonal antibody G3619 described in Serre G. et al. (1991, J. Invest. Dermatol., 97, 1061-1072) diluted 1/12500.
Each blot is then stained with a 0.03% amido black solution (SIGMA) in order to normalize the quantity of corneodesmosin relative to a quantification of the keratins.
FIG. 2 presents the variation of the corneodesmosin signal after incubation of various quantities of semi-purified AGA with an acetone powder for 8 hours.

[1] = target: T1, AGA activity purified from the SC (aspartylglucosaminidase, EC 3.5.1.26) (Homo sapiens, UniProt P20933); assay: AGA activity assay with the fluorescent substrate Asp-AMC; format: biochemical; details: L-asparagine used at 1.25 mM
T1 construct: led to the identification of the A chain of AGA (band of 24 kDa); and of the B chain of AGA (bands of 16 and 15 kDa); from tissue; host or cells: human stratum corneum, scraped from the anterior surface of the leg
T1 sequence (P20933 24-205 limits assumed): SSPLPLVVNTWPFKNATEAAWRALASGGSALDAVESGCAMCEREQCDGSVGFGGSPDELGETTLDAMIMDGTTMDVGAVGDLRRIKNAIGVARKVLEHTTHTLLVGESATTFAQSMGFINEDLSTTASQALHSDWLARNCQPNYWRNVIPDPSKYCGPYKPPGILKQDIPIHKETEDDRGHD
T1 sequence (P20933 206-346 limits assumed): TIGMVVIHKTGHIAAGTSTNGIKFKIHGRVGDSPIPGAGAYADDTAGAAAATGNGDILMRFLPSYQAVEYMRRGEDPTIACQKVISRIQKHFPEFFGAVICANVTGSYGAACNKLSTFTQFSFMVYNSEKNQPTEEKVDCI
Method: The purification of AGA is monitored by assaying of activity with the fluorescent substrate L-aspartic acid beta(7-amido-4-methylcoumarin) (Asp-AMC) according to the method described by Mononen I. T. et al., 1993, Analytical Biochemistry, 208, 372-374. 10 μl of each eluted fraction are incubated for 24 h at 37° C. with 100 μl of Asp-AMC substrate diluted to 1 mM in 0.1 M Tris-HCl buffer, pH 8. The fluorescence is quantified on a Biolumin reader (excitation/emission: 340/450 nm).
The AGA activity was assayed with the substrate Asp-AMC in various SC extracts.

aspartylglucosaminidase AGA (EC 3.5.1.26)
variation of the quantity of corneodesmosin (prodesquamating effect) (corneodesmosin; SC acetone powder incubated with increasing quantities of semi-purified AGA): decrease in the quantity of corneodesmosin

NC(=O)C[C@H](N)C(=O)O [L-asparagine]
inhibition of the AGA activity purified from the SC [1]: inhibit the AGA activity | inhibition of the AGA-induced decrease in corneodesmosin (corneodesmosin; L-asparagine at 5 mM, 10 μl of AGA condition): inhibits this effect

— patent US20040197299A1, “Topically applicable cosmetic/dermatological compositions comprising hydrolase polypeptides having amidase activity and/or products modulating the activity thereof” (SOCIETE L'OREAL, S.A., priority 2003, published 2004)
